Assay results reported in ChEMBL document CHEMBL1130946, “Highly efficient and versatile synthesis of libraries of constrained beta-strand mimetics” (Bioorg Med Chem Lett, 1998).

These compounds were tested against Prothrombin (Homo sapiens, UniProt P00734) (assay: Compound was evaluated for its binding affinity to the thrombin).

SMILES | Ki
CC1=CC(C(=O)NC(CCCCN)C(=O)C(=O)NCCc2ccc(C(N)=O)cc2)N2C(=O)C(Cc3ccccc3)(Cc3ccccc3)C(=O)N2C1 (stereo not drawn) | 1.89 nM
CC1=CC(C(=O)NC(CCCCN)C(=O)C(=O)NCCc2ccc(C(N)=O)cc2)n2c(=O)n(CC(c3ccccc3)c3ccccc3)c(=O)n2C1 (stereo not drawn) | 0.035 nM
CCCCC1(CCCC)C(=O)N2CC(C)=CC(C(=O)NC(CCCCN)C(=O)C(=O)NCCc3ccc(C(N)=O)cc3)N2C1=O (stereo not drawn) | 0.2 nM
CC1=CC(C(=O)NC(CCCCN)C(=O)C(=O)NCCc2ccc(C(N)=O)cc2)N2C(=O)C(CC(C)C)(CC(C)C)C(=O)N2C1 (stereo not drawn) | 5.09 nM
C=CCC1(CC=C)C(=O)N2CC(C)=CC(C(=O)NC(CCCCN)C(=O)C(=O)NCCc3ccc(C(N)=O)cc3)N2C1=O (stereo not drawn) | 18 nM
CCC1(N)C(=O)N2C(Cc3ccccc3)C=CC(C(=O)NC(CCCCN)C(=O)C(N)=O)N2C1=O (stereo not drawn) | 4.33 nM
CC1=CC(C(=O)NC(CCCCN)C(=O)C(=O)NCc2ccc(C(N)=O)cc2)N2C(=O)C(N)(Cc3ccccc3)C(=O)N2C1 (stereo not drawn) | 1.58 nM
NCCCCC(NC(=O)C1C=CCn2c(=O)n(CC(c3ccccc3)c3ccccc3)c(=O)n21)C(=O)C(=O)NCCc1ccc(C(N)=O)cc1 (stereo not drawn) | 0.3 nM

These compounds were tested against Serine protease 1 (Homo sapiens, UniProt P07477) (assay: Compound was evaluated for its binding affinity to the trypsin enzyme).
Sequence of Serine protease 1 (P07477 whole entry): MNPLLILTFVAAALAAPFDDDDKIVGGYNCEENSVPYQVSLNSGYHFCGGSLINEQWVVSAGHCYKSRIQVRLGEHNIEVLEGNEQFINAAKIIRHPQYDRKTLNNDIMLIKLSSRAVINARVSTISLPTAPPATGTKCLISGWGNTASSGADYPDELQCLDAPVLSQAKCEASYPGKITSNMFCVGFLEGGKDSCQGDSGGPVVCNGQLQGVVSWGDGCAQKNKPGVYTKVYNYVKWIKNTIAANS

SMILES | Ki
COc1ccc(-n2c(=O)n3n(c2=O)C(C(=O)NC(CCCCN)C(=O)C(=O)NCCc2ccc(C(N)=O)cc2)C=CC3CC(C)C)cc1 (stereo not drawn) | 0.28 nM
CC(C)CCn1c(=O)n2n(c1=O)C(C(=O)NC(CCCCN)C(=O)C(=O)NCCc1ccc(C(N)=O)cc1)C=CC2CC(C)C (stereo not drawn) | 0.43 nM

Each compound was assayed against Kallikrein-1 (Homo sapiens, UniProt P06870) (assay: Compound was evaluated for its inhibitory activity against Kallikrein).
Sequence of Kallikrein-1 (P06870 whole entry): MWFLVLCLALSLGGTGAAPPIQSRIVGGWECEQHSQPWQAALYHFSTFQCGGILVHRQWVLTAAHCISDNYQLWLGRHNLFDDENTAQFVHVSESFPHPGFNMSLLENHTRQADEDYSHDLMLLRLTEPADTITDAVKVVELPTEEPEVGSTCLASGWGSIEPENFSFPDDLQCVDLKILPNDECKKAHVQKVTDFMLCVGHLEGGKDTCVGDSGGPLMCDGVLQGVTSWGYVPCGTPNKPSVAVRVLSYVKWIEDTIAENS

SMILES | Ki
CC1(C)C2CC3C(=CC(C(=O)NC(CCCCN)C(=O)C(=O)NCCc4ccc(C(N)=O)cc4)n4c(=O)n(Cc5ccc(Cl)c(Cl)c5)c(=O)n43)C1C2 (stereo not drawn) | 31 nM
COC(=O)C1C(CCc2ccccc2)=CC(C(=O)NC(CCCCN)C(=O)C(=O)NCCc2ccc(C(N)=O)cc2)n2c(=O)n(Cc3cc(F)ccc3F)c(=O)n21 (stereo not drawn) | 21 nM

What follows are compounds tested against Tryptase (Homo sapiens, UniProt Q9BZJ3+Q15661+Q9NRR2) (assay: Compound was evaluated for its binding affinity to the tryptase).
Format: protein assay

SMILES | Ki
CC1=CC(C(=O)NC(CCCCN)C(=O)C(=O)NCCc2ccc(C(N)=O)cc2)n2c(=O)n(C(c3ccccc3)c3ccccc3)c(=O)n2C1 (stereo not drawn) | 5.9 nM
